SMILES strings stand for the structures. Where only a bound is given, the exact number is not on record here.

T1 sequence (Q0QF01 43-664 partner): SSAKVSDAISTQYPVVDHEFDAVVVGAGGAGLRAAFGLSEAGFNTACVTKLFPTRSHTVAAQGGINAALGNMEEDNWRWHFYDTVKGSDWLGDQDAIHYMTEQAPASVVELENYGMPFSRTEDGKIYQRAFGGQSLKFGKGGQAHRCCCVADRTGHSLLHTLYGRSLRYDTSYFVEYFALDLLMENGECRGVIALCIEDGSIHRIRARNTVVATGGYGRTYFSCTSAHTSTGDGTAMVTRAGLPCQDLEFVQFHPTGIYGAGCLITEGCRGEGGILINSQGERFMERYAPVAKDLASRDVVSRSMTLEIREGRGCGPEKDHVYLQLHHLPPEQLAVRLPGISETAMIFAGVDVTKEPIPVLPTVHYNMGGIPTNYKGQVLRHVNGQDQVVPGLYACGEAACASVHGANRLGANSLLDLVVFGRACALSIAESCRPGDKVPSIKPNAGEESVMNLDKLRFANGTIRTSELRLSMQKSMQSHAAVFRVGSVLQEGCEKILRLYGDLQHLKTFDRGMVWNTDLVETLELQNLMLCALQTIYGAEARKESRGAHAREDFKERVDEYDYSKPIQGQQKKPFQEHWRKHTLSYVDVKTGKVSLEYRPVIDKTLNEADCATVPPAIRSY
T1 sequence (Q007T0 29-280): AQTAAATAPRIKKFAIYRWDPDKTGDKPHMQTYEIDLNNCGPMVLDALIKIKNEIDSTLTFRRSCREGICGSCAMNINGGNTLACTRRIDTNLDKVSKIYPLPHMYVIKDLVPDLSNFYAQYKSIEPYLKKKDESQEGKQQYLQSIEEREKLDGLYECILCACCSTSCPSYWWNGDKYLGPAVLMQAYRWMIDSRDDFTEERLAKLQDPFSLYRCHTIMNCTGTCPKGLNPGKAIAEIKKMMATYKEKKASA
T1 sequence (D0VWV4 30-169): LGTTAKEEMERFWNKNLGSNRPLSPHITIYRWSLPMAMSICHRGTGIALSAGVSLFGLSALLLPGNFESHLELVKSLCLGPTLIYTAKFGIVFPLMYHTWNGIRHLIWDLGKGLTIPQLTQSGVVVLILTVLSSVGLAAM
T1 sequence (A5GZW8 57-159 limits assumed): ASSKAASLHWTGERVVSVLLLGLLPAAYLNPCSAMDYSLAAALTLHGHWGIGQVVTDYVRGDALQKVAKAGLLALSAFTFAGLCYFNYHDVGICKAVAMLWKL

The test system of the first test is Erysiphe graminis. Description: Erysiphe graminis potting method. The note with it: Blumeria graminis; 100 mg/L; read-out: Erysiphe graminis control rating. Type of test: in vivo. Here is the method: The fungicidal activity of the control agents and target compounds are determined. The test and investigation method refers to SOP-SC-1116 Erysiphe graminis potting method in disinfectant rolls written by KANGZHUO and GUBAOGEN in “Standard operation specification for testing biological activity of pesticides”.
Regarding `C=C(CN(C(=O)c1c(C(F)F)nn(C)c1F)C1CC1)c1ccc(S(C)(=O)=O)cc1Cl` [Compound 48], the pest or weed control at 100 µg/mL is 80 to 100%.

For the molecule `CC(C(=C(Cl)Cl)c1c(Br)cccc1Br)N(C(=O)c1c(C(F)F)nn(C)c1F)C1CC1` (stereo not drawn) [Compound 189], the pest or weed control at 100 µg/mL was in the range of 80 to 100%.

With `C=C(c1ccc(C)cc1)C(C)N(C(=O)c1c(C(F)F)nn(C)c1F)C1CC1` (stereo not drawn) [Compound 60], the pest or weed control at 100 µg/mL is 80 to 100%.

For `C=C(CN(C(=O)c1c(C(F)F)nn(C)c1F)C1CC1)c1cc(C(F)(F)F)ccc1Cl` [Compound 45], the pest or weed control at 100 µg/mL lay within 80 to 100%.

On to `C=C(CN(C(=O)c1c(C(F)F)nn(C)c1F)C1CC1)c1ccc(C)cc1C` [Compound 33], for which the pest or weed control at 100 µg/mL is 80 to 100%.

Regarding `Cn1nc(C(F)F)c(C(=O)N(CC(=C(Cl)Cl)c2cc(C(F)(F)F)ccc2Cl)C2CC2)c1F` [Compound 156], the pest or weed control at 100 µg/mL was 80 to 100%.

Consider `C=C(c1ccccc1F)C(C)N(C(=O)c1c(C(F)F)nn(C)c1F)C1CC1` (stereo not drawn) [Compound 58], for which the pest or weed control at 100 µg/mL is 80 to 100%.

Consider `Cc1cc(C)cc(C(CN(C(=O)c2c(C(F)F)nn(C)c2F)C2CC2)=C(Cl)Cl)c1` [Compound 152], for which the pest or weed control at 100 µg/mL was in the range of 80 to 100%.

In the case of `Cc1cccc(C)c1C(=C(Cl)Cl)C(C)N(C(=O)c1c(C(F)F)nn(C)c1F)C1CC1` (stereo not drawn) [Compound 195], the pest or weed control at 100 µg/mL was in the range of 80 to 100%.

For `Cn1nc(C(F)F)c(C(=O)N(CC(=C(Cl)Cl)c2ccc(Br)c(Br)c2)C2CC2)c1F` [Compound 138], the pest or weed control at 100 µg/mL lay within 80 to 100%.

In the case of `C=C(CN(C(=O)c1c(C(F)F)nn(C)c1F)C1CC1)c1cc(S(C)(=O)=O)ccc1Cl` [Compound 51], the pest or weed control at 100 µg/mL lay in the range of 80 to 100%.

Take `C=C(c1cc(Br)ccc1Br)C(C)N(C(=O)c1c(C(F)F)nn(C)c1F)C1CC1` (stereo not drawn) [Compound 83]: the pest or weed control at 100 µg/mL lay in the range of 80 to 100%.

In the case of `Cc1ccc(C(C)(C)C)c(C(CN(C(=O)c2c(C(F)F)nn(C)c2F)C2CC2)=C(Cl)Cl)c1` [Compound 146], the pest or weed control at 100 µg/mL lay in the range of 80 to 100%.

As for `C=C(c1c(C)cccc1C)C(C)N(C(=O)c1c(C(F)F)nn(C)c1F)C1CC1` (stereo not drawn) [Compound 90], the pest or weed control at 100 µg/mL was in the range of 80 to 100%.

For `C=C(c1ccccc1C(F)(F)F)C(C)N(C(=O)c1c(C(F)F)nn(C)c1F)C1CC1` (stereo not drawn) [Compound 71], the pest or weed control at 100 µg/mL was 80 to 100%.

Consider `Cc1ccc(C)c(C(CN(C(=O)c2c(C(F)F)nn(C)c2F)C2CC2)=C(Cl)Cl)c1` [Compound 141], for which the pest or weed control at 100 µg/mL was 80 to 100%.

Take `Cn1nc(C(F)F)c(C(=O)N(CC(=C(Cl)Cl)c2ccc(Br)cc2)C2CC2)c1F` [Compound 131]: the pest or weed control at 100 µg/mL lay in the range of 80 to 100%.

In the case of `C=C(CN(C(=O)c1c(C(F)F)nn(C)c1F)C1CC1)c1ccc(Br)cc1Br` [Compound 28], the pest or weed control at 100 µg/mL fell in the range of 80 to 100%.

The test system of the next test is Sphaerotheca fuliginea. Description: Sphaerotheca fuliginea potting method. The class given is in vivo. The note with it: Podosphaera fuliginea; 100 mg/L; read-out: Sphaerotheca fuliginea control rating. As for the experimental part:
The fungicidal activity of the control agents and target compounds are determined. The test and investigation method refers to SOP-SC-1101 sphaerotheca fuliginea potting method in disinfectant rolls written by KANGZHUO and GUBAOGEN in “Standard operation specification for testing biological activity of pesticides”.
Consider `C=C(CN(C(=O)c1c(C(F)F)nn(C)c1F)C1CC1)c1ccc(S(C)(=O)=O)cc1Cl` [Compound 48], for which the pest or weed control at 100 µg/mL fell in the range of 80 to 100%.

`CC(C(=C(Cl)Cl)c1c(Br)cccc1Br)N(C(=O)c1c(C(F)F)nn(C)c1F)C1CC1` (stereo not drawn) [Compound 189]: the pest or weed control at 100 µg/mL lay within 80 to 100%.

With `C=C(c1ccc(C)cc1)C(C)N(C(=O)c1c(C(F)F)nn(C)c1F)C1CC1` (stereo not drawn) [Compound 60], the pest or weed control at 100 µg/mL lay in the range of 80 to 100%.

`C=C(CN(C(=O)c1c(C(F)F)nn(C)c1F)C1CC1)c1cc(C(F)(F)F)ccc1Cl` [Compound 45]: the pest or weed control at 100 µg/mL lay within 80 to 100%.

For the molecule `C=C(CN(C(=O)c1c(C(F)F)nn(C)c1F)C1CC1)c1ccc(C)cc1C` [Compound 33], the pest or weed control at 100 µg/mL was 80 to 100%.

Regarding `Cn1nc(C(F)F)c(C(=O)N(CC(=C(Cl)Cl)c2cc(C(F)(F)F)ccc2Cl)C2CC2)c1F` [Compound 156], the pest or weed control at 100 µg/mL is 80 to 100%.

For `C=C(c1ccccc1F)C(C)N(C(=O)c1c(C(F)F)nn(C)c1F)C1CC1` (stereo not drawn) [Compound 58], the pest or weed control at 100 µg/mL lay within 80 to 100%.

Regarding `Cc1cc(C)cc(C(CN(C(=O)c2c(C(F)F)nn(C)c2F)C2CC2)=C(Cl)Cl)c1` [Compound 152], the pest or weed control at 100 µg/mL was in the range of 80 to 100%.

With `Cc1cccc(C)c1C(=C(Cl)Cl)C(C)N(C(=O)c1c(C(F)F)nn(C)c1F)C1CC1` (stereo not drawn) [Compound 195], the pest or weed control at 100 µg/mL lay in the range of 80 to 100%.

On to `Cn1nc(C(F)F)c(C(=O)N(CC(=C(Cl)Cl)c2ccc(Br)c(Br)c2)C2CC2)c1F` [Compound 138], for which the pest or weed control at 100 µg/mL is 80 to 100%.

`C=C(CN(C(=O)c1c(C(F)F)nn(C)c1F)C1CC1)c1cc(S(C)(=O)=O)ccc1Cl` [Compound 51]: the pest or weed control at 100 µg/mL was in the range of 80 to 100%.

Take `C=C(c1cc(Br)ccc1Br)C(C)N(C(=O)c1c(C(F)F)nn(C)c1F)C1CC1` (stereo not drawn) [Compound 83]: the pest or weed control at 100 µg/mL lay in the range of 80 to 100%.

As to `Cc1ccc(C(C)(C)C)c(C(CN(C(=O)c2c(C(F)F)nn(C)c2F)C2CC2)=C(Cl)Cl)c1` [Compound 146], the pest or weed control at 100 µg/mL was in the range of 80 to 100%.

In the case of `C=C(c1c(C)cccc1C)C(C)N(C(=O)c1c(C(F)F)nn(C)c1F)C1CC1` (stereo not drawn) [Compound 90], the pest or weed control at 100 µg/mL fell in the range of 80 to 100%.

For the molecule `C=C(c1ccccc1C(F)(F)F)C(C)N(C(=O)c1c(C(F)F)nn(C)c1F)C1CC1` (stereo not drawn) [Compound 71], the pest or weed control at 100 µg/mL lay in the range of 80 to 100%.

On to `Cc1ccc(C)c(C(CN(C(=O)c2c(C(F)F)nn(C)c2F)C2CC2)=C(Cl)Cl)c1` [Compound 141], for which the pest or weed control at 100 µg/mL is 80 to 100%.

Turning to `Cn1nc(C(F)F)c(C(=O)N(CC(=C(Cl)Cl)c2ccc(Br)cc2)C2CC2)c1F` [Compound 131], the pest or weed control at 100 µg/mL was 80 to 100%.

`C=C(CN(C(=O)c1c(C(F)F)nn(C)c1F)C1CC1)c1ccc(Br)cc1Br` [Compound 28]: the pest or weed control at 100 µg/mL fell in the range of 80 to 100%.

The next test addresses T1, succinate dehydrogenase (Sus scrofa, UniProt A5GZW8+D0VWV4+Q007T0).
T1 construct: isolated from porcine hearts; from tissue; host or cells: porcine heart
Put plainly: Enzyme activity assay, succinate dehydrogenase (DCIP reduction). Type of test: biochemical, porcine. The note with it: read-out: Inhibitors (10 μM, SQR). In a few lines:
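Porcine heart succinate dehydrogenase (2 nM) in 100 mM sodium phosphate pH 7.4, 0.3 mM EDTA, 20 mM sodium succinate and 53 μM DCIP at 23° C with stirring. DCIP reduction followed at 600 nm (ε 21 mM^−1 cm^−1); linear slope minus baseline gives initial rate.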
Turning to `C=C(CN(C(=O)c1c(C(F)F)nn(C)c1F)C1CC1)c1ccc(S(C)(=O)=O)cc1Cl` [Compound 48], the inhibition at 10 µM was over 90%.

In the case of `CC(C(=C(Cl)Cl)c1c(Br)cccc1Br)N(C(=O)c1c(C(F)F)nn(C)c1F)C1CC1` (stereo not drawn) [Compound 189], the inhibition at 10 µM was over 90%.

In the case of `C=C(c1ccc(C)cc1)C(C)N(C(=O)c1c(C(F)F)nn(C)c1F)C1CC1` (stereo not drawn) [Compound 60], the inhibition at 10 µM is over 90%.

With `C=C(CN(C(=O)c1c(C(F)F)nn(C)c1F)C1CC1)c1cc(C(F)(F)F)ccc1Cl` [Compound 45], the inhibition at 10 µM is over 90%.

`C=C(CN(C(=O)c1c(C(F)F)nn(C)c1F)C1CC1)c1ccc(C)cc1C` [Compound 33]: the inhibition at 10 µM is over 90%.

In the case of `Cn1nc(C(F)F)c(C(=O)N(CC(=C(Cl)Cl)c2cc(C(F)(F)F)ccc2Cl)C2CC2)c1F` [Compound 156], the inhibition at 10 µM was over 90%.

Regarding `C=C(c1ccccc1F)C(C)N(C(=O)c1c(C(F)F)nn(C)c1F)C1CC1` (stereo not drawn) [Compound 58], the inhibition at 10 µM was over 90%.

For the molecule `Cc1cc(C)cc(C(CN(C(=O)c2c(C(F)F)nn(C)c2F)C2CC2)=C(Cl)Cl)c1` [Compound 152], the inhibition at 10 µM is over 90%.

As to `Cc1cccc(C)c1C(=C(Cl)Cl)C(C)N(C(=O)c1c(C(F)F)nn(C)c1F)C1CC1` (stereo not drawn) [Compound 195], the inhibition at 10 µM is over 90%.

On to `Cn1nc(C(F)F)c(C(=O)N(CC(=C(Cl)Cl)c2ccc(Br)c(Br)c2)C2CC2)c1F` [Compound 138], for which the inhibition at 10 µM was over 90%.

Take `C=C(CN(C(=O)c1c(C(F)F)nn(C)c1F)C1CC1)c1cc(S(C)(=O)=O)ccc1Cl` [Compound 51]: the inhibition at 10 µM is over 90%.

As to `C=C(c1cc(Br)ccc1Br)C(C)N(C(=O)c1c(C(F)F)nn(C)c1F)C1CC1` (stereo not drawn) [Compound 83], the inhibition at 10 µM was over 90%.

On to `Cc1ccc(C(C)(C)C)c(C(CN(C(=O)c2c(C(F)F)nn(C)c2F)C2CC2)=C(Cl)Cl)c1` [Compound 146], for which the inhibition at 10 µM was over 90%.

`C=C(c1c(C)cccc1C)C(C)N(C(=O)c1c(C(F)F)nn(C)c1F)C1CC1` (stereo not drawn) [Compound 90]: the inhibition at 10 µM is over 90%.

`C=C(c1ccccc1C(F)(F)F)C(C)N(C(=O)c1c(C(F)F)nn(C)c1F)C1CC1` (stereo not drawn) [Compound 71]: the inhibition at 10 µM is over 90%.

`Cc1ccc(C)c(C(CN(C(=O)c2c(C(F)F)nn(C)c2F)C2CC2)=C(Cl)Cl)c1` [Compound 141]: the inhibition at 10 µM was over 90%.

On to `Cn1nc(C(F)F)c(C(=O)N(CC(=C(Cl)Cl)c2ccc(Br)cc2)C2CC2)c1F` [Compound 131], for which the inhibition at 10 µM was over 90%.

For `C=C(CN(C(=O)c1c(C(F)F)nn(C)c1F)C1CC1)c1ccc(Br)cc1Br` [Compound 28], the inhibition at 10 µM is over 90%.

Values taken from patent US12540118B2, “Dendrene amide compound, bactericide and use thereof” (Jiangsu Flag Chemical Industry Co., Ltd., priority 2020, dated 2026).
